“Also recorded” adds a separate entry of the source.
Experiments:
[1] = test system: aortic endothelium of diabetic mice; conditions: cited from earlier work
[2] = test system: human microvascular endothelial cells (HMVEC); test: NO bioavailability (DAF2-DA) in endothelial cells treated with peptide; format: cell-based; conditions: 1 μM peptide, one hour, 37° C.
Description: FIG. 17. The bioavailability of nitric oxide (NO) increased in human microvascular endothelial cells (HMVEC) treated with novel peptide pep213. HMVEC cells were treated with 1 μM pep213-tat for one hour at 37° C. and NO was measured with diaminofluorescein-2 diacetate (DAF2-DA) staining. N=3,* P=0.04.
(§1) Cells in Culture: To measure nitric oxide (NO) bioavailability in HMEC-1 cells and arterioles, a fluorescent NO marker, 4,5-diaminofluorescein diacetate (DAF2-DA from Cayman Chemical) was used. In a dark room, cells were incubated with or without 100 μM L-NAME for 2 hours followed by 15 minutes of incubation with DAF2-DA (5 μM) at 37° C. Fluorescence intensity was measured using a SPECTRAFluor Plus plate reader (Tecan, Morrisville, NC) using excitation and emission wavelengths of 485 nm and 535 nm, respectively. […] The arterioles were then washed with PBS buffer, mounted on a slide, and imaged by fluorescence microscopy. Untreated and unstained arterioles were used as controls for fluorescence background interference. Both treated and control vessels were measured using the same gain settings and the results were analyzed using Meta Morph 7.8 software (Universal imaging, West Chester, PA).

[3] = test system: resistance arterioles from healthy humans over-expressing Fis1 in the endothelium; test: Endothelium-dependent vasodilation in resistance arterioles over-expressing Fis1; parameters: species or system human; conditions: 1 μM peptide, one hour of exposure
Description: FIG. 19. Pep213 can reverse impaired endothelium-dependnet vasodilation in resistance arterioles. One hour of exposure to pep213 attached to a tat sequence to improve cell penetration (1 μM pep213-tat) reverses impaired endothelium-dependent vasodilation in resistance arterioles from healthy humans over-expressing Fis1 in the endothelium (overexpression of human Fis1 achieved using lentiviral vector to transfect the vessel with a plasmid for endothelial-specific over-expression of human Fis1). 1 μM of a scrambled peptide using the same amino acids as pep213 in a random order has no effect on endothelium dependent vasodilation to acetylcholine. Pep213-tat induce improves endothelium-dependent vasodilation in an eNOS-dependent manner (as determined by the loss in acetylcholine induced endothelium-dependent vasodilation with the use of eNOS inhibitor L-NAME). N=5, P<0.001 overall. *P<0.05 at the indicated doses of acetylcholine. Ach-acetylcholine.
Further the peptide of the present invention, e.g., Pep213, can reverse impaired endothelium-dependent vasodilation in resistance arterioles. […] Pep213-tat induce improves endothelium-dependent vasodilation in an eNOS-dependent manner (as determined by the loss in acetylcholine induced endothelium-dependent vasodilation with the use of eNOS inhibitor L-NAME). […]

[4] = test system: human resistance arteries; test: Endothelium-dependent vasodilation to acetylcholine, resistance arteries from healthy subjects exposed to high or low glucose; conditions: for impaired endothelium-dependent vasodilation to acetylcholine: high glucose 33 mM six hours, 1-10 μM peptide
Text: (§2) Human Resistance Artery Acquisition: Human resistance arteries from adipose samples were obtained from the upper outer quadrant of the gluteal adipose pad as previously described.^2,8,13,15,16 Briefly, following sterilization and anesthesia with 1% lidocaine, a 1-1.5 cm incision is made in the upper outer quadrant of the gluteal adipose pad. An approximately 8 cm^3 volume of adipose tissue was removed by sharp dissection. After achieving hemostasis, the wounds were closed with 1-2 absorbable deep dermal sutures and the epidermal layer closed using either Dermabond or steristrips.
(§3) Transfection of human resistance arteries with siRNA constructs was performed as previously described.^8,13 Briefly, resistance arteries dissected from adipose tissue were suspended in a culture myograph chamber (204 CM, DMT, Ann Arbor). One end of the vessel was sutured onto a glass pipette within a micro-organ chamber. Prior to suturing the second end of the arteriole to a glass pipette, Fis1 siRNA, Drp1 siRNA (20 nM in optiMEM using Lipofectamine RNAiMax, Invitrogen) or control scrambled siRNA (20 nM) were gently injected, into the vessel lumen. The loose end of the vessel is then tied onto another glass pipette, and the vessel is suspended in the chamber and placed on a myograph stage bathed in physiological buffer at 37° C. and pressurized to 60 mmHg. Following 4-6 hours of incubation, the siRNA is slowly washed out of the lumen over 24 hours at a low shear rate (□<5 dyn/cm^2).
(§4) Measurement of Endothelium-Dependent Vasoactivity: Transfected resistance arteries from healthy individuals were exposed to either normal glucose conditions (NG, glucose level 5 mM), 2 hours of low glucose (LG, glucose level 2.5 mM) or 6 hours of high glucose (HG, glucose level 33 mM). All studies in vessels from patients with T2DM were performed at 5 mM glucose. Vessels were pre-constricted approximately 50% of resting diameter with endothelin-1 (Sigma Aldrich, USA). The constricted arterioles are then exposed to acetylcholine (Ach) at serially increasing doses from 10^−10 to 10^−5 M, and changes in vessel diameter were measured using digital calipers and videomicroscopy. Following the 10^−5 M dose, vessels were exposed to 200 μM papaverine to test the smooth muscle reactivity. Following a 30-minute washout period, the same arterioles were re-constricted and incubated with L-NG-nitroarginine methyl ester (L-NAME, 100 μM), a direct inhibitor of nitric oxide synthase, for 30 minutes and vasodilation subsequently was remeasured following the exposure to Ach 10^−10 to 10^−5 M.

[5] = test system: vessels from T2DM subjects; test: Endothelium-dependent vasodilation to acetylcholine, resistance vessels from T2DM subjects; parameters: species or system human; conditions: for impaired endothelium-dependent vasodilation to acetylcholine: 5 mM glucose, 1 or 10 μM peptide
Text: as §2, §3, §4

[6] = test system: human resistance arteries; test: NO bioavailability (DAF2-DA fluorescence) in human resistance arteries; conditions: healthy vessels, HG and LG
Description: as §1, with “respectively. Human Resistance Arteries: Two vessels were obtained from a subset of healthy subjects and each vessel was cut in half to allow for four experimental conditions which included transfection with Fis1 siRNA or Drp1 siRNA with and without concomitant exposure to L-NAME for 30 minutes and transfection with scrambled siRNA control with and without concomitant exposure to L-NAME at room temperature.” for “respectively.”

HMEC-1 cells = test: NO production and eNOS activation in HMEC-1 cells; format: cell-based, human; conditions: non-transfected HMEC-1 cells
Description: FIG. 14. Phosphorylation of eNOS at Ser1177 and NO production increased in HMEC-1 cells upon activation with Ca+2 ionophore A23187 (A) representative western blot of p-eNOS-Ser1177) and β-actin with and without addition of A23187.(B) Quantitative measure of p-eNOS-(Ser1177) treated with and without A23187 (P=0.03, n=6). (C) NO production as measured using DAF2-DA (5 uM) increased upon addition of A23187 (n=4, P=0.02).
FIG. 15. […] Cells exposed to L-NAME were incubated with L-NAME for 2 hours followed by a 15-minute incubation with DAF2-DA (5 uM) prior to measurement of fluorescence intensity.
as §1, with “In a dark room, cells were incubated with or without 100 μM L-NAME for 2 hours followed by 15 minutes of incubation with DAF2-DA (5 μM) at 37° C.” left out

ApoE knockout mice = conditions: cited from earlier work
cardiac myocytes = conditions: rat model of T2DM (OLEFT), cited from earlier work

N#C[C@@H]1CCCN1C(=O)CNC12CC3CC(CC(O)(C3)C1)C2 [vildagliptin]
NO production ([1]; aortic endothelium of diabetic mice): increasing | Drp1 translocation from the cytosol ([1]; diabetic mice): reduces | ROS production ([1]; diabetic mice): reduces | expression of Fis1 and Drp1 ([1]; diabetic mice): reduces | mitochondrial fission ([1]; diabetic mice): reduces

YGRKKRRQRRRGSGSGSSHKHDPLPYPHFLL (Synthetic - Pep213 fused to TAT (pep213-TAT))
NO bioavailability (DAF2-DA fluorescence) [2]: increased | NO bioavailability (DAF2-DA fluorescence) ([2]; listed as pep213-TAT): significant increase | impaired endothelium-dependent vasodilation to acetylcholine [3]: reverses | papaverine response (smooth muscle reactivity) ([4]; 200 μM papaverine, healthy and T2DM vessels): did not impact | impaired endothelium-dependent vasodilation to acetylcholine ([4]; healthy vessels): reversed | impaired endothelium-dependent vasodilation to acetylcholine ([4]; healthy vessels, listed as Pep213-tat): reversed | impaired endothelium-dependent vasodilation to acetylcholine ([4]; healthy vessels, listed as Tat sequence-linked pep213): improved | impaired endothelium-dependent vasodilation to acetylcholine ([4]; healthy vessels, listed as pep213-TAT): significant improvement | impaired endothelium-dependent vasodilation to acetylcholine ([5]; T2DM vessels): reverses | impaired endothelium-dependent vasodilation to acetylcholine ([5]; T2DM vessels, listed as Pep213-tat): reversed | impaired endothelium-dependent vasodilation to acetylcholine ([5]; T2DM vessels, listed as Tat sequence-linked pep213): improved | impaired endothelium-dependent vasodilation to acetylcholine ([5]; T2DM vessels, listed as pep213-TAT): significant improvement

COC(=O)[C@@H](N)CCCNC(=N)N[N+](=O)[O-] [L-NAME, L-NG-nitroarginine methyl ester]
effect of L-NAME on protective effect of Fis1 siRNA ([4]; healthy vessels, HG and LG): completely blocked | effect of L-NAME on improvement seen with pep213-tat ([4]; healthy vessels, high glucose, L-NAME 100 μM): abolished the improvements; also recorded: reversed all improvements | effect of L-NAME on Fis1 siRNA increase in DAF2-DA fluorescence [6]: completely abolished | effect of L-NAME on improvement seen with pep213-TAT ([5]; T2DM vessels, L-NAME 100 μM): abolished the improvements | effect of L-NAME on favorable effect of Fis1 siRNA ([5]; vessels from diabetic subjects): completely attenuated

CNc1ccc2oc(C[C@H]3O[C@@]4(CC[C@H]3C)O[C@H]([C@H](C)C(=O)c3ccc[nH]3)[C@H](C)C[C@H]4C)nc2c1C(=O)O [A23187]
NO production (DAF2-DA fluorescence intensity) (HMEC-1 cells): significant increase; also recorded: increased | eNOS phosphorylation at Ser1177 (HMEC-1 cells): significant increase; also recorded: increased

CN(C)C(=N)N=C(N)N [Metformin]
atherosclerotic formation (ApoE knockout mice): reduces

OC[C@H]1O[C@@H](c2ccc(Cl)c(Cc3ccc(O[C@H]4CCOC4)cc3)c2)[C@H](O)[C@@H](O)[C@@H]1O [Empagliflozin]
mitochondrial superoxide dismutase, SOD2 (cardiac myocytes; cardiac myocytes): up-regulated | Fis1 over-expression (cardiac myocytes): reduced | mitochondrial fission (cardiac myocytes): reduced

— patent US20240010683A1, “Peptide Inhibitors of Human Mitochondrial Fission Protein 1 and Methods of Use” (The Medical College of Wisconsin, Inc., priority 2020, published 2024)
